# Assay results from patent US9743675B2, “Antimicrobial composition” (UNIVERSITY OF SURREY, priority 2009, dated 2017).
# “And” between values parts separate entries of the source, which are not always exact repeats. Equal entries are not always repeated. Where two headings read alike, the source gives them in different places.
# Columns and labels:
# Salmonella enteritidis [1] = assay: micro broth dilution, coniferaldehyde and vanillin with and without DHAA (Example 9); format: cell-based; conditions: Vanilin/Coniferylaldehyde 0/5 mM; DHAA 20 mM if combined
# Protocol: All stock solutions were stored at 5° C. In vitro bioassay: The MIC of the different treatments was determined using a micro broth dilution method. […] Control wells were prepared by adding 100 μL acetone. […] […] The plates were placed in a laminar flow chamber for 8 hours to evaporate the solvent. […] Where possible, colonies were counted to obtain more precise quantitative data.
# [2] = solubility in water, concluded from water extraction of heated pine shavings; format: physicochemical
# Salmonella enterica [3] = assay: perlite assay, survival of Salmonella enterica: vanillin with dehydro-abietic acid (Example 1); format: cell-based
# Protocol: A 20 mmol solution of dehydroabietic acid in alcohol and water was also prepared.
# Salmonella enteritidis [4] = assay: perlite bio-assay with pure DHAA and vanillin (Example 7); format: cell-based; conditions: DHAA (10 μl of 20 mM) if +DA
# Protocol: Also, one 20 mM stock solution of DHAA was made in acetone. Bioassay test: The test was carried out using 1.5 ml Eppendorf tubes containing 10 mg of fine perlite. Ten μl of each concentration of vanillin was dispensed into four Eppendorf tubes to obtain four replicates of each concentration. Two of these received 10 μl of DHAA. The tubes were left in laminar flow chamber for 3 h to allow evaporation of the acetone. […] To keep the perlite moist during incubation, 10 μl of sterile R.O water was dispensed into each tube. As controls, two tubes received DHAA only and two tubes received R.O water only. The tubes were incubated overnight, and bacterial survival was quantified by plating the content of each tube onto nutrient agar for the bacterial count.
# S. cerevisiae = assay: inhibition zone experiment on TLC plate; format: cell-based; conditions: FIG. 8, S. cerevisiae; on its own or in combination with DHAA
# Protocol: Two test solutions were prepared, i.e.: (i) vanillin in combination with DHAA, and (ii) stilbene in combination with dehydro-abietic acid (DHAA). The activity of the solutions were then tested on several different micro-organisms, as follows. A droplet of a test solution was placed on a TLC plate. The solvent was allowed to evaporate and a suspension of test micro-organisms (Gram-positive and Gram-negative bacteria) in broth was applied evenly onto the TLC plate. The plate was incubated overnight. To visualise microbial activity, the TLC plate was sprayed with tetrazolium salt solution. Microbial activity was indicated by a red-pink colour. To show the efficacy of the solutions against filamentous fungi, the inoculated TLC plates were incubated until the fungus started to sporulate. To show efficacy against yeast, after incubation, the TLC plates were pressed against a nutrient agar plate. The plate was incubated until yeast colonies were clearly visible.
# Salmonella enterica [5] = test system: Salmonella enterica
# S. enteritidis = assay: inhibition zone experiment on TLC plate; format: cell-based; conditions: FIG. 3
# Protocol: Two test solutions were prepared, i.e.: (i) vanillin in combination with DHAA, and (ii) stilbene in combination with dehydro-abietic acid (DHAA). The activity of the solutions were then tested on several different micro-organisms, as follows.
# A droplet of a test solution was placed on a TLC plate. The solvent was allowed to evaporate and a suspension of test micro-organisms (Gram-positive and Gram-negative bacteria) in broth was applied evenly onto the TLC plate. The plate was incubated overnight. To visualise microbial activity, the TLC plate was sprayed with tetrazolium salt solution. Microbial activity was indicated by a red-pink colour.
# Salmonella enterica [6] = format: cell-based
# Protocol: 20 mmol solutions of ursolic acid, oleonic acid and betulin in alcohol were also prepared.
compound,measurement,setting,value
"COc1cc(/C=C/C=O)ccc1O [Coniferyl aldehyde, coniferaldehyde]",Colony counts,Salmonella enteritidis [1],TMTC
"CC(C)c1ccc2c(c1)CC[C@H]1[C@](C)(C(=O)O)CCC[C@]21C [Dehydro-Abietic acid, dehydroabietic acid]",solubility in water,[2],poorly-soluble in water
same,Average no of cfu recovered per droplet,"Salmonella enterica [3]; DHAA 20 mmol alone, vanillin 0",>100 cfu
"COc1cc(C=O)ccc1O [Vanillin, 4-hydroxy-3-methoxybenzaldehyde]",Salmonella enteritidis count,Salmonella enteritidis [4]; vanillin 0.313 mM,TMTC
same,Salmonella enteritidis count,Salmonella enteritidis [4]; vanillin 2.5 mM,TMTC
same,Salmonella enteritidis count,Salmonella enteritidis [4]; vanillin 5 mM,TMTC
same,Salmonella enteritidis count,Salmonella enteritidis [4]; vanillin 10 mM,394 CFU/tube and 500 CFU/tube
same,concentration of vanillin at which it is effective,S. cerevisiae,5 mM
same,Average no. of cfu recovered per droplet,"Salmonella enterica [5]; vanillin 20 mmol, citric acid 20 mmol if combined",>100 cfu
same,inhibition of S. enteritidis on TLC plate,S. enteritidis,ineffective
same,Average no. of cfu recovered per droplet,Salmonella enterica [6],>100 cfu
same,Average no of cfu recovered per droplet,"Salmonella enterica [3]; vanillin 0.001 mmol, DHAA 20 mmol if combined",>100 cfu
same,Average no of cfu recovered per droplet,"Salmonella enterica [3]; vanillin 0.019 mmol, DHAA 20 mmol if combined",>100 cfu
same,Average no of cfu recovered per droplet,"Salmonella enterica [3]; vanillin 0.039 mmol, DHAA 20 mmol if combined",>100 cfu
same,Average no of cfu recovered per droplet,"Salmonella enterica [3]; vanillin 0.078 mmol, DHAA 20 mmol if combined",>100 cfu
same,Average no of cfu recovered per droplet,"Salmonella enterica [3]; vanillin 0.156 mmol, DHAA 20 mmol if combined",>100 cfu
same,Average no of cfu recovered per droplet,"Salmonella enterica [3]; vanillin 0.313 mmol, DHAA 20 mmol if combined",>100 cfu
same,Average no of cfu recovered per droplet,"Salmonella enterica [3]; vanillin 0.625 mmol, DHAA 20 mmol if combined",>100 cfu
same,Average no of cfu recovered per droplet,"Salmonella enterica [3]; vanillin 1.25 mmol, DHAA 20 mmol if combined",>100 cfu
same,Average no of cfu recovered per droplet,"Salmonella enterica [3]; vanillin 2.5 mmol, DHAA 20 mmol if combined",>100 cfu
same,Average no of cfu recovered per droplet,"Salmonella enterica [3]; vanillin 5 mmol, DHAA 20 mmol if combined",>100 cfu
same,Average no of cfu recovered per droplet,"Salmonella enterica [3]; vanillin 10 mmol, DHAA 20 mmol if combined",>100 cfu
same,Average no of cfu recovered per droplet,"Salmonella enterica [3]; vanillin 20 mmol, DHAA 20 mmol if combined",>100 cfu
same,inhibitory effect on Salmonella,"Salmonella enterica [3]; vanillin on its own, 20 mmol or less",no inhibitory effect
C=C(C)[C@@H]1CC[C@]2(CO)CC[C@]3(C)[C@H](CC[C@@H]4[C@@]5(C)CC[C@H](O)C(C)(C)[C@@H]5CC[C@]43C)[C@@H]12 [betulin],Average no. of cfu recovered per droplet,"Salmonella enterica [6]; triterpenoid 20 mmol alone, vanillin 0",>100 cfu
O=C(O)CC(O)(CC(=O)O)C(=O)O [citric acid],Average no. of cfu recovered per droplet,"Salmonella enterica [5]; citric acid 20 mmol alone, vanillin 0",>100 cfu
"CC1(C)CC[C@]2(C(=O)O)CC[C@]3(C)C(=CC[C@@H]4[C@@]5(C)CC[C@H](O)C(C)(C)[C@@H]5CC[C@]43C)[C@@H]2C1 [oleanic acid, oleanolic acid]",Average no. of cfu recovered per droplet,Salmonella enterica [6],>100 cfu
C[C@H]1[C@H](C)CC[C@]2(C(=O)O)CC[C@]3(C)C(=CC[C@@H]4[C@@]5(C)CC[C@H](O)C(C)(C)[C@@H]5CC[C@]43C)[C@H]12 [ursolic acid],Average no. of cfu recovered per droplet,Salmonella enterica [6],>100 cfu
